Data as given in patent US20180280385A1, “NINTEDANIB FOR USE IN METHODS FOR THE TREATMENT OF MUSCULAR DYSTROPHY” (Boehringer Ingelheim International GmbH, priority 2017, published 2018).

Key:
animal model of DMD = settings: literature (Bizario 2009; Huang 2009; Ito 2013); cited from earlier work
mdx mice [1] = experiment: Hanging wire test in mdx mice, 2nd study; type: in vivo, mouse; settings: mdx mice from 6 weeks of age, 60 mg/kg once daily intragastrically
Protocol: The treatment of the mdx mice with nintedanib started at an age of 10 months in the 1st study and at 6 weeks in a 2nd study. Treatment duration was 4 weeks in the 1st study and 7 weeks in the 2nd study. Nintedanib was used at a dose of 60 mg/kg once daily administered intragastrically via gavage in both studies. In the 2nd study, 7 mdx mice were treated with nintedanib, 5 mdx mice with the vehicle as placebo and no WT control was included as unaffected, untreated control animals. At the end of the 2nd study, a hanging wire test was performed. In the 2nd study a so called “hanging wire” test was performed (see section Examples and Experimental Data; Rabl et al., BMC Neurosci 2017, 18, 22). This test can be used to assess global “subacute” muscle function and coordination over time in young and old mdx mice. The longest suspension time (LST) and the “fall and reaches” score (FRS) were recorded before the start of the treatment period and after 7 weeks of treatment with nintedanib. […]

mdx mice [2] = experiment: Electromyography (percentage of small, medium and large MUAPs) in mdx mice, 1st study; type: in vivo, mouse; settings: mdx mice aged 10 months, 60 mg/kg once daily intragastrically, 4 weeks
Source text: (§1) The mdx mouse is a well characterized and widely used animal model for drug tests for DMD (Bulfield et al., Proc Natl Acad Sci USA 1984, 81, 1189-92). Mdx mice spontaneously develop a pathology resembling aspects of the human disease. They present cycles of degeneration and regeneration in the limb muscles and a progressive degeneration and fibrosis in the diaphragm (Coirault et al., J Appl Physiol 2003, 94, 1744-50). The first wave of degeneration peaks in the fourth week of life. At day 21, muscular lesions can be observed, including myofiber necrosis, leaking myofibers as a consequence of injuries to the sarcolemma, high levels of serum creatine kinase, and the presence of large areas of inflammation, connective tissue, and fat (Collins and Morgan, Int J Exp Pathol 2003, 84, 165-72; Grounds et al., Neurobiol Dis 2008, 31, 1-19). Compulsory physical activity can be applied to exacerbate the muscular degeneration during this phase (De Luca et al., Am J Pathol 2005, 166, 477-89; Grounds et al., Neurobiol Dis 2008, 31, 1-19). The treatment of the mdx mice with nintedanib started at an age of 10 months in the 1st study and at 6 weeks in a 2nd study. […] In the electromyography the percentage of small, medium and large motor unit action potentials (MUAPs) were recorded (Gordon et al., Can J Physiol Pharmacol 2004, 82, 645-661).

mdx mice [3] = experiment: Histological analysis of muscular fibrosis incl. immunofluorescent staining for collagen VI in mdx mice, 1st study; type: in vivo, mouse
Protocol: The treatment of the mdx mice with nintedanib started at an age of 10 months in the 1st study and at 6 weeks in a 2nd study. Treatment duration was 4 weeks in the 1st study and 7 weeks in the 2nd study. Nintedanib was used at a dose of 60 mg/kg once daily administered intragastrically via gavage in both studies.
(§2) In the 1st study, 7 mdx mice were treated with nintedanib, 5 mdx mice with the vehicle as placebo and 5 C57Bl6/mice (=wild type=WT) were used as unaffected, untreated control animals. At the end of the 1st study, electrophysiological examinations using electroneurography and electromyography and a histological analysis were performed. In addition, the level of collagen I expression was investigated using western blot in 4 mice of each test group.
At the end of the 1st study, the diaphragm from non-treated mdx mice had increased fibrotic tissue areas, compared to WT mice, and inflammatory infiltrates.
The fibrotic area of the muscles was assessed using immunofluorescent staining for collagen VI (Col VI). 8 photographs from different muscle sections of the quadriceps, tibialis anterior and diaphragm were randomly taken. […] The reduction of 7% by nintedanib treatment was statistically significant (p<0.001) (FIG. 3A).

mdx mice [4] = experiment: Collagen I expression by western blotting in muscle tissue of mdx mice, 1st study; type: in vivo, mouse; settings: western blot, normalized to alpha-tubulin; versus mdx mice; 60 mg/kg once daily, 4 weeks
Protocol: as §2, with “The treatment of the mdx mice with nintedanib started at an age of 10 months in the 1st study and at 6 weeks in a 2nd study. Treatment duration was 4 weeks in the 1st study and 7 weeks in the 2nd study. Nintedanib was used at a dose of 60 mg/kg once daily administered intragastrically via gavage in both studies. In the” for “In the”

mdx mice [5] = experiment: Electroneurography (amplitude of motor evoked potentials / CMAP) in mdx mice, 1st study; type: in vivo, mouse; settings: mdx mice aged 10 months, 60 mg/kg once daily intragastrically, 4 weeks; versus non-treated mdx mice; statistically significant in tibialis anterior
Source text: as §1, with “group of” for “electromyography”, “nintedanib-treated mdx mice, an increase in the amplitude” for “percentage”, “the” for “small, medium and large”, “evoked” for “unit action”, “in all nerves studied was detected in comparison to non-treated mdx mice (FIG. 1A-C). […]” for “(MUAPs) were recorded (Gordon et al., Can J Physiol Pharmacol 2004, 82, 645-661).”

Cc1ccc(NC(=O)c2ccc(CN3CCN(C)CC3)cc2)cc1Nc1nccc(-c2cccnc2)n1 [imatinib]
efficacy in an animal model of DMD (animal model of DMD): had shown efficacy

COC(=O)c1ccc2c(c1)NC(=O)/C2=C(\Nc1ccc(N(C)C(=O)CN2CCN(C)CC2)cc1)c1ccccc1 [nintedanib, Nintedanib]
"fall and reaches" score (FRS) (mdx mice [1]; 7 week observation period, decreased in vehicle-treated mice): remained nearly constant
longest suspension time (LST) (mdx mice [1]; after 7 weeks of treatment versus before start): increased
large MUAPs (mdx mice [2]): increase
percentage of small MUAPs (mdx mice [2]): normalized
reduction of mean Col VI-stained fibrotic area of the diaphragma by treatment (mdx mice [3]; difference to non-treated mdx mice, p<0.001): 7%
inflammatory infiltrates in the diaphragm (histology) (mdx mice [3]; mdx mice aged 10 months, 60 mg/kg once daily intragastrically, 4 weeks): not observed
fibrotic area of the diaphragm (histology) (mdx mice [3]; mdx mice aged 10 months, 60 mg/kg once daily intragastrically, 4 weeks, versus non-treated mdx mice): clearly reduced
Col VI staining in tibialis anterior sections (mdx mice [3]; mdx mice aged 10 months, 60 mg/kg once daily, 4 weeks, non-treated mdx 21.4%, p=0.06, not statistically significant): 18.9%
Col VI staining in quadriceps sections (mdx mice [3]; mdx mice aged 10 months, 60 mg/kg once daily, 4 weeks, non-treated mdx 25.4%, p=0.03): 23.1%
mean fibrotic area stained for Col VI on the diaphragma (mdx mice [3]; mdx mice aged 10 months, 60 mg/kg once daily, 4 weeks, non-treated mdx 57.8%, p<0.001): 50.8%
collagen I (Col I) expression in the diaphragm (mdx mice [4]): statistically significant decrease
collagen I (Col I) expression in the tibialis anterior (mdx mice [4]): statistically significant decrease
amplitude of the motor evoked potentials (CMAP) in all nerves studied (tibialis anterior, Gastrocnemius, Plantar muscle) (mdx mice [5]): increase
